What all share (assay): NCI anticancer screen, dose series, 48 h
In test [1] the test system is NCI-H23 lung.
Test [2] has as its system KM12 colon.
Test [3] has as its system MDA-MB-435.
For test [4], the system named is UACC-257 melanoma.
For test [5], the system named is M14 melanoma.
Test [6] concerns IGROV1 ovarian.
The subject of test [7] is SW-620 colon.
Test [8] deals with SK-MEL-28 melanoma.
Test [9] has as its system U251 CNS.
Test [10] has as its system RXF 393 renal.

Data on 10 compounds can be found in PubChem BioAssay (NCI).

Where “and” joins values, the source holds several entries; their conditions need not be identical. Equal entries are not always repeated.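 Growth conditions: 96-well plates. Treatment: test compound, 48 hours, 5 concentrations. Analysis: linear interpolation between bracketing concentrations; unreached endpoints set to highest concentration. Here, GI50 denotes the concentration required for 50% inhibition of growth. Definition used: TGI = concentration required for complete inhibition of growth.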

Consider `COc1ccc(-c2nc3sccn3c2/C=C/C(=O)c2cc(OC)c(OC)c(OC)c2)cc1OC`, for which the GI50 in test [1] was 2.16 µM; in test [2] it was 2.04 µM; in test [3], 2.84 µM; in [4], 2.65 µM; in test [5] it was 3.1 µM; in [6] it was 1.2 µM. The TGI in test [1] came out at 5.89 µM; in test [2], 4.53 µM; in [3], 19.1 µM; in [4] it was 7.17 µM; in [5] it was 9.3 µM; in test [6], 3.31 µM.
On to `CS(=O)(=O)c1ccc(Oc2nccc(-c3c(-c4ccc(F)cc4)ncn3C3CCNCC3)n2)cc1`, for which the GI50 in test [2], in test [7], in test [3], in test [8], in test [5] and in test [6] was above 25 µM each time. Further, the GI50 in test [9] and in [10] was above 25 µM each time. The TGI in [2], in test [7], in [3], in [8], in test [5] and in [6] was above 25 µM throughout. Besides, the TGI in test [9] and in test [10] was above 25 µM throughout.
With `Cc1c(C(=O)N/N=C/c2ccc(O)cc2)nnn1-c1ccnc2c(C(F)(F)F)cccc12`, the GI50 in test [1] was 29.3 µM; in test [2], above 100 µM; in [7], above 100 µM; in [3] it was above 100 µM; in test [4], above 100 µM; in [8] it was above 100 µM. Also, the values for the GI50 in test [5], in test [6] and in test [10] were above 100 µM, above 100 µM and 5.22 µM, respectively. Besides, the TGI in test [1], in test [2], in [7], in test [3], in test [4] and in test [8] was above 100 µM in each case. In addition, the figures for the TGI in test [5], in [6] and in test [10] were above 100 µM, above 100 µM and 34.6 µM, respectively.
For the compound `Brc1nc2c3ccccc3ncn2c1Br`, the TGI in test [1] was 56.1 µM; in [2] it was above 100 µM; in test [7], above 100 µM; in test [4], above 100 µM; in test [8] it was above 100 µM; in test [5], above 100 µM. The values for the TGI in test [6], in test [9] and in test [10] were above 100 µM, above 100 µM and 86.1 µM, respectively.
Consider `COc1cc(-c2cc(C(=O)Nc3nc4ccccc4s3)nc3cc(-c4ccccc4)nn23)cc(OC)c1OC`, for which the GI50 is 11.5 µM in test [1]; 22.6 µM in test [2]; 2.61 µM in [3]; 3.34 µM in [8]; 2.39 µM in test [5]; 56.3 µM in test [6]. The GI50 was 5.14 µM in test [9] and 6.22 µM in test [10]. For the same compound, the TGI in [1] was above 100 µM; in test [2], above 100 µM; in test [3] it was 40.3 µM; in test [8], above 100 µM; in test [5] it was above 100 µM; in test [6] it was above 100 µM. The TGI in test [9] came to 32.6 µM; in test [10], 22.1 µM.
As to `Cc1c2cc[n+](C)cc2c(C)c2c1[nH]c1ccc(OC(C)C)cc12`, the TGI was 5.08 µM and 7.09 µM in test [1]; 13.3 µM and 11.4 µM in test [2]; 37.9 µM and 21.3 µM in test [7]; 8.06 µM and 11.7 µM in [4]; 12.4 µM and 17.3 µM in test [8]; 35 µM and 26.7 µM in test [5]. Besides, the TGI in [6] was 22.3 µM and 29.5 µM; in test [9], 2.93 µM and 9.46 µM; in [10], above 100 µM. In addition, the GI50 in test [9] was 0.145 µM and 0.39 µM; in test [10], 7.26 µM and 20.4 µM.
As to `CC1=CCP(C(F)(F)F)P(C(F)(F)F)C1` (stereo unspecified), the TGI in test [1], in [2], in test [7], in test [4], in test [8] and in [5] was above 100 µM each time. In addition, the values for the TGI in [6], in test [9] and in [10] were above 100 µM, above 100 µM and 58.3 µM, respectively.
As for `Cc1ccc(C2=[N+]([O-])c3ccccc3C2=O)cc1`, the TGI is above 31.6 µM in test [1]; 50.9 µM in [2]; above 55.2 µM in test [7]; 33 µM in test [4]; 22 µM in test [8]; 59.4 µM in [5]. Besides, the TGI was 43 µM in test [6], 44.9 µM in [9] and 26.6 µM in test [10].
As to `C=C(CN1CCc2ccccc2C1)c1ccc(/C=C/C(=O)Nc2ccccc2N)cc1`, the GI50 is 9.55 µM in test [1]; 0.965 µM in test [2]; 5.07 µM in test [7]; 4.89 µM in test [3]; 1.3 µM in test [4]; 46.7 µM in [8]. For the same compound, the GI50 was 4.46 µM in test [6], 3.42 µM in test [9] and 12.1 µM in test [10]. For the same compound, the TGI in test [1] was above 100 µM; in test [2], above 100 µM; in test [7], above 100 µM; in test [3] it was 80.7 µM; in [4], 28 µM; in test [8], above 100 µM. The TGI was above 100 µM in test [6], 27.8 µM in [9] and above 100 µM in test [10].
As for `O=C(CCl)Nc1ccccc1SCc1cc(Cl)cc2c1OCOC2`, the GI50 in test [1] is 9.58 µM; in [2], 13.8 µM; in test [7], 3.73 µM; in [3], 2.87 µM; in test [8] it was 13.5 µM; in test [5], 4.68 µM. Further, the results for the GI50 in [6], in test [9] and in [10] were 2.27 µM, 16.1 µM and 7.24 µM, respectively. Also, the TGI in [1] is 31.2 µM; in test [2] it was 27.4 µM; in test [7], 17.1 µM; in [3], 11.1 µM; in [8], 26.8 µM; in test [5], 16.8 µM. Further, the TGI in test [6] was 5.62 µM; in test [9] it was 31.3 µM; in [10] it was 20.9 µM.
